From patent US20070160531A1 (priority 1995, published 2007)

Test system: Rat Lung
Conditions: in vivo, iv

Substance: ^3H-daunomycin
- % in lung (total drug in the lung as a percentage of the original dose): 0.65%
- % inj/g tissue: 0.63 % inj/g
